Patent US20200390100A1, “SUBSTITUTED N-HETEROCYCLYL- AND N-HETEROARYL-TETRAHYDROPYRIMIDINONES AND THE SALTS THEREOF, AND THE USE OF SAME AS HERBICIDAL ACTIVE SUBSTANCES” (Bayer Aktiengesellschaft, priority 2017, published 2020)

Legend:
Type in all cases: in vivo
Digitaria sanguinalis [1] = assay: Post-emergence herbicidal action, greenhouse, 320 g/ha; settings: application rate 320 g/ha, rated visually after about 3 weeks vs untreated controls
In short: (§1)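 Plants treated post-emergence at the one-leaf stage, 2 to 3 weeks after sowing in sandy loam, with WP or EC formulations plus 0.5% additive at 320 g/ha. Visual rating about 3 weeks later versus untreated controls (100% = dead, 0% = like control).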

Hordeum murinum [2] = assay: as above; settings: application rate 320 g/ha, rated visually after about 3 weeks vs untreated controls
In short: as §1

Pharbitis purpurea [3] = assay: as above; settings: application rate 320 g/ha, rated visually after about 3 weeks vs untreated controls
In short: as §1

Matricaria inodora [4] = assay: Herbicidal post-emergence action (Part 2), 1280 g/ha; settings: application rate 1280 g/ha, rated visually after about 3 weeks, Table C6
In short: (§2)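 Greenhouse-grown weeds in sandy loam treated post-emergence at the one-leaf stage (2-3 weeks after sowing) with WP or EC formulations plus 0.5% additive at 600 L/ha water. Visual activity rated about 3 weeks later versus untreated controls, 0% (like control) to 100% (dead).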

Amaranthus retroflexus [5] = assay: as above; settings: application rate 1280 g/ha, rated visually after about 3 weeks, Table C5
In short: as §2

Stellaria media [6] = assay: as above; settings: application rate 1280 g/ha, rated visually after about 3 weeks, Table C7
In short: as §2

Echinochloa crus-galli [7] = assay: as above; settings: post-emergence (Part 2), application rate 1280 g/ha, rated visually after about 3 weeks vs untreated controls
In short: as §2

Viola tricolor [8] = assay: Pre-emergence herbicidal action, greenhouse, 320 g/ha; settings: application rate 320 g/ha, Table B8
In short: (§3)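 Seeds were sown in pots and covered with soil. WP or EC formulations were sprayed onto the soil surface as aqueous suspension or emulsion with 0.5% additive. Damage was scored visually after about 3 weeks as % activity against untreated controls (100% = plants dead, 0% = like control).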

Matricaria inodora [9] = assay: as above; settings: application rate 320 g/ha, scored visually after about 3 weeks vs untreated controls
In short: as §3

Abutilon theophrasti [10] = assay: as above; settings: application rate 320 g/ha, scored visually after about 3 weeks vs untreated controls
In short: as §3

Digitaria sanguinalis [11] = assay: as above; settings: application rate 320 g/ha, Table B9
In short: as §3

Amaranthus retroflexus [12] = assay: as above; settings: application rate 320 g/ha, scored visually after about 3 weeks vs untreated controls
In short: as §3

Hordeum murinum [13] = assay: as above; settings: application rate 320 g/ha, Table B14
In short: as §3

Setaria viridis [14] = assay: as above; settings: application rate 320 g/ha, Table B11
In short: as §3

Stellaria media [15] = assay: as above; settings: application rate 320 g/ha, scored visually after about 3 weeks vs untreated controls
In short: as §3

Alopecurus myosuroides = assay: as above; settings: application rate 320 g/ha, scored visually after about 3 weeks vs untreated controls
In short: as §3

Avena fatua = assay: as above; settings: application rate 320 g/ha, scored visually after about 3 weeks vs untreated controls
In short: as §3

Echinochloa crus-galli [16] = assay: as above; settings: application rate 320 g/ha, scored visually after about 3 weeks vs untreated controls
In short: as §3

Polygonum convolvulus [17] = assay: as above; settings: application rate 320 g/ha, scored visually after about 3 weeks vs untreated controls
In short: as §3

Matricaria inodora [18] = assay: Herbicidal pre-emergence action (Part 2), 1280 g/ha; settings: application rate 1280 g/ha, scored visually after about 3 weeks, Table D7
In short: (§4)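 Pre-emergence test: monocot and dicot weed seeds were sown in sandy loam, and the soil surface was sprayed with WP or EC formulations at 1280 g/ha (600 L/ha water, 0.5% additive). After about 3 weeks in the greenhouse, damage was visually scored as percent versus untreated controls (100% = dead).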

Amaranthus retroflexus [19] = assay: as above; settings: application rate 1280 g/ha, scored visually after about 3 weeks, Table D6
In short: as §4

Poa annua [20] = assay: as above; settings: application rate 1280 g/ha, scored visually after about 3 weeks, Table D3
In short: as §4

Stellaria media [21] = assay: as above; settings: application rate 1280 g/ha, scored visually after about 3 weeks, Table D8
In short: as §4

Echinochloa crus-galli [22] = assay: as above; settings: application rate 1280 g/ha, scored visually after about 3 weeks, Table D1
In short: as §4

Viola tricolor [23] = assay: Post-emergence herbicidal action, greenhouse, 320 g/ha; settings: application rate 320 g/ha, rated visually after about 3 weeks vs untreated controls
In short: as §1

Matricaria inodora [24] = assay: as above; settings: application rate 320 g/ha, rated visually after about 3 weeks vs untreated controls
In short: as §1

Abutilon theophrasti [25] = assay: as above; settings: application rate 320 g/ha, rated visually after about 3 weeks vs untreated controls
In short: as §1

Amaranthus retroflexus [26] = assay: as above; settings: application rate 320 g/ha, rated visually after about 3 weeks vs untreated controls
In short: as §1

Setaria viridis [27] = assay: as above; settings: application rate 320 g/ha, rated visually after about 3 weeks vs untreated controls
In short: as §1

Stellaria media [28] = assay: as above; settings: application rate 320 g/ha, rated visually after about 3 weeks vs untreated controls
In short: as §1

Polygonum convolvulus [29] = assay: as above; settings: application rate 320 g/ha, rated visually after about 3 weeks vs untreated controls
In short: as §1

Veronica persica = assay: Pre-emergence herbicidal action, greenhouse, 320 g/ha; settings: application rate 320 g/ha, Table B13
In short: as §3

Pharbitis purpurea [30] = assay: as above; settings: application rate 320 g/ha, Table B12
In short: as §3

Abutilon theophrasti [31] = assay: Herbicidal pre-emergence action (Part 2), 1280 g/ha; settings: application rate 1280 g/ha, scored visually after about 3 weeks, Table D5
In short: as §4

Lolium rigidum = assay: as above; settings: application rate 1280 g/ha, scored visually after about 3 weeks, Table D2
In short: as §4

Setaria viridis [32] = assay: as above; settings: application rate 1280 g/ha, scored visually after about 3 weeks, Table D4
In short: as §4

Abutilon theophrasti [33] = assay: Herbicidal post-emergence action (Part 2), 1280 g/ha; settings: application rate 1280 g/ha, rated visually after about 3 weeks, Table C4
In short: as §2

Poa annua [34] = assay: as above; settings: application rate 1280 g/ha, rated visually after about 3 weeks, Table C2
In short: as §2

SMILES	Digitaria sanguinalis (efficacy in %) (Digitaria sanguinalis [1])	Hordeum murinum (efficacy in %) (Hordeum murinum [2])	Pharbitis purpurea (efficacy in %) (Pharbitis purpurea [3])	Matricaria inodora (Matricaria inodora [4])	Amaranthus retroflexus (Amaranthus retroflexus [5])	Viola tricolor (efficacy in %) (Viola tricolor [8])	Abutilon theophrasti (efficacy in %) (Abutilon theophrasti [10])	Amaranthus retroflexus (efficacy in %) (Amaranthus retroflexus [12])	Stellaria media (efficacy in %) (Stellaria media [15])	Avena fatua (efficacy in %) (Avena fatua)	Polygonum convolvulus (efficacy in %) (Polygonum convolvulus [17])	Matricaria inodora (Matricaria inodora [18])	Amaranthus retroflexus (Amaranthus retroflexus [19])	Poa Annua (Poa annua [20])	Stellaria media (Stellaria media [21])	Echinochloa crus-galli (Echinochloa crus-galli [22])	Matricaria inodora (efficacy in %) (Matricaria inodora [24])	Abutilon theophrasti (efficacy in %) (Abutilon theophrasti [25])	Amaranthus retroflexus (efficacy in %) (Amaranthus retroflexus [26])	Stellaria media (efficacy in %) (Stellaria media [28])	other results
CC(=O)OC1CC(C)N(C)C(=O)N1c1cc(C(C)(C)C)on1 (mixture of isomers) [I.42-162]	100%	90%	100%	100%	100%	90%	100%	100%	100%	80%	90%	100%	100%	100%	100%	100%	–	–	–	–	Stellaria media (Stellaria media [6]): 100%; Echinochloa crus-galli (Echinochloa crus-galli [7]): 100%; Matricaria inodora (efficacy in %) (Matricaria inodora [9]): 100%; Digitaria sanguinalis (efficacy in %) (Digitaria sanguinalis [11]): 80%; Hordeum murinum (efficacy in %) (Hordeum murinum [13]): 90%; Setaria viridis (efficacy in %) (Setaria viridis [14]): 100%; Alopecurus myosuroides (efficacy in %) (Alopecurus myosuroides): 90%; Echinochloa crus-galli (efficacy in %) (Echinochloa crus-galli [16]): 80%
CN1CCC(OC(=O)C(C)(C)C)N(c2cc(C(C)(C)C)on2)C1=O (stereo not drawn) [I.6-162]	–	90%	90%	–	–	100%	100%	100%	100%	90%	90%	–	–	–	–	–	100%	100%	80%	100%	Viola tricolor (efficacy in %) (Viola tricolor [23]): 100%; Setaria viridis (efficacy in %) (Setaria viridis [27]): 100%; Polygonum convolvulus (efficacy in %) (Polygonum convolvulus [29]): 100%; Matricaria inodora (efficacy in %) (Matricaria inodora [9]): 100%; Veronica persica (efficacy in %) (Veronica persica): 100%; Hordeum murinum (efficacy in %) (Hordeum murinum [13]): 90%; Pharbitis purpurea (efficacy in %) (Pharbitis purpurea [30]): 90%; Setaria viridis (efficacy in %) (Setaria viridis [14]): 100%; Alopecurus myosuroides (efficacy in %) (Alopecurus myosuroides): 90%; Echinochloa crus-galli (efficacy in %) (Echinochloa crus-galli [16]): 100%
CCC(=O)OC1CC2CCCN2C(=O)N1c1cc(C(C)(C)C)on1 (stereo not drawn) [I.123-162]	100%	–	–	–	–	–	–	–	–	–	–	100%	100%	100%	100%	100%	80%	100%	100%	100%	Viola tricolor (efficacy in %) (Viola tricolor [23]): 100%; Polygonum convolvulus (efficacy in %) (Polygonum convolvulus [29]): 100%; Abutilon theophrasti (Abutilon theophrasti [31]): 100%; Lolium rigidum (Lolium rigidum): 100%; Setaria viridis (Setaria viridis [32]): 100%
CCCC(=O)OC1CC2CCCN2C(=O)N1c1cc(C(C)(C)C)on1 (stereo not drawn) [I.126-162]	–	–	–	100%	100%	–	–	–	–	–	–	100%	100%	100%	100%	100%	–	–	–	–	Abutilon theophrasti (Abutilon theophrasti [33]): 100%; Poa Annua (Poa annua [34]): 100%; Stellaria media (Stellaria media [6]): 100%; Echinochloa crus-galli (Echinochloa crus-galli [7]): 90%; Abutilon theophrasti (Abutilon theophrasti [31]): 100%; Lolium rigidum (Lolium rigidum): 100%; Setaria viridis (Setaria viridis [32]): 100%
CN1CC(F)(F)C(O)N(c2cc(C(C)(C)C)on2)C1=O (stereo not drawn) [I.141-162]	100%	–	–	–	–	90%	90%	100%	100%	80%	90%	–	–	–	–	–	80%	100%	90%	100%	Setaria viridis (efficacy in %) (Setaria viridis [27]): 100%
